# In US6949566B2, “Thiazole and oxazole derivatives” (Shionogi & Co. Ltd., priority 2000, dated 2005):
# Target: T1, MMP-9 (Homo sapiens, UniProt P14780)
# T1 construct: endogenous in cells; host or cells: HT1080 human fibrosarcoma cells, TPA-stimulated; enzyme purified from conditioned medium
# Test: Assay for inhibitory activities on MMPs (fluorogenic peptide substrate), MMP-9
# Assay type: biochemical
# Conditions: MMP-9 from HT1080 cells, activated by TPCK-Trypsin; substrate MOCAc-Pro-Leu-Gly-Leu-A2Pr(DNP)-Ala-Arg-NH2
# Description: MMP-9 was isolated and purified by procedures described in as follows: Yasunori Okada, Yukio Gonoji, Katsumi Naka, Katsuro Tomita, Isao Nakanishi, Kazushi Iwata, Kyoko Yamashita, and Taro Hayakawa: Matrix metalloproteinase 9 (92-kDa gelatinase/type IV collagenase) from HT1080 human fibrosarcoma cells. Purification and activation of the precursor and enzymic properties J. Biol. Chem., 1992, 267 21712-21719, in combination with others: 1)Yasunori Okada, Tatsuhisa Morodomi, Jan J, Enghild, ko Suzuki, Atsushi Yasui, Isao Nakanishi, Guy Salvesen and Hideaki Nagase: Matrix metalloproteinase 2 from human rheumatoid synovial fibroblasts. Purification and activation of the precursor and enzymic properties. Eur. J. Biochem. 1990, 194 721-730; 2)Robin V Ward, Rosalind M Hembry, John J Reynolds and Gillian Murphy: The purification of tissue inhibitor of metalloproteinase-2 from its 72 kDa progelatinase complex. Biochem. J. 1991 278 179-187. In detail, human fibrosarcoma ATCC HT1080 cell line was cultured to confluent in Dulbecco's Modified Medium (DMEM) containing 10% fetal-calf serum at 37° C. for 48 hours. Subsequently, the medium of confluent culture was changed to serum-free DMEM medium. To obtain MMP-9, Phorbol-12-myristate-13-acetate (TPA) must be added to this serum-free DMEM medium at a concentration of 50 ng/ml. The TPA treated medium was centrifuged at 3000 rpm for 15 min and the supernatant was concentrated to 450 ml by a Toyo-Roshi UP-20 apparatus with an ultrafiltration membrane. Then, proMMP-9 in this concentrated solution was purified by using columns of Gelatin-Sepharose and Concanavalin A-Sepharose. The pool containing proMMP-9 was dialyzed, concentrated (Toyo-Roshi UP-20) and applied to columns of Sephacryl S-200 and Green A matrix for the separation from TIMPs. The obtained proMMP-9 fraction was activated by TPCK-Trypsin (Final conc. 3 μg/501 μl React Mix.).
# (§1) The enzymatic activity on MMPs was analyzed by the method described in “C. Graham Knight, Frances Willenbrock and Gillian Murphy: A novel coumarin-labelled peptide for sensitive continuous assays of the matrix metalloproteinases: FEBS LETT., 296, (1992), 263-266”. The substrate MOCAc-Pro-Leu-Gly-Leu-A2Pr(DNP)-Ala-Arg-NH2 was purchased from Peptide Institute, Inc., Osaka, Japan. The measurement of the inhibitory activities (IC50) was carried out by the following four methods;
# (§2) (A) Reaction with substrate, enzyme (MMPs) and inhibitor
# (§3) (B) Reaction with substrate and inhibitor, without enzyme
# (§4) (C) Reaction with substrate and enzyme (MMPs), without inhibitor
# (§5) (D) Reaction with substrate only
# (§6) IC50 values were calculated by using the following formula and each fluorescence values of above four methods (A to D). % inhibition={1−(A−B)/(C−D)}×100 IC50 means the concentration required to inhibit 50% of the enzyme activity.
# T1 sequence (P14780 107-707 limits assumed): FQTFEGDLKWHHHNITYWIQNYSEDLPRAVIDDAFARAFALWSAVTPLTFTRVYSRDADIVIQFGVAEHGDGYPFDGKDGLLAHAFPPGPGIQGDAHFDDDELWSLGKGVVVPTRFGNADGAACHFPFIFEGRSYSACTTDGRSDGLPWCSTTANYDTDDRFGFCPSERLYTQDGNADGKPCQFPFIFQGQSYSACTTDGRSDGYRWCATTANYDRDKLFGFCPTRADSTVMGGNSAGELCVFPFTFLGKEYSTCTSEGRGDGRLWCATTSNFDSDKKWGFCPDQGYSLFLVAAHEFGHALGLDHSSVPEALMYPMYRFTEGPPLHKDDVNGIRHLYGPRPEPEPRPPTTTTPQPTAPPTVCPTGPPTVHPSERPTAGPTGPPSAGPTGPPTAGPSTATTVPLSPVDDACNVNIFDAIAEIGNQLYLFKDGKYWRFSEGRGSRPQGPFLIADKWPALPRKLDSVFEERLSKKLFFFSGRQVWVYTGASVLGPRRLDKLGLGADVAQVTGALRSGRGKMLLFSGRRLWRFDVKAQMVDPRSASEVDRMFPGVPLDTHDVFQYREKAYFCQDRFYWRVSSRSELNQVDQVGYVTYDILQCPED
row,IC50 [nM],SMILES
1,11.6,O=C(O)C[C@@H](NS(=O)(=O)c1ccc(-c2ncc(-c3ccc(Cl)cc3)s2)cc1)C(=O)O [Compound B-38]
2,24,CSCC[C@@H](NS(=O)(=O)c1ccc(-c2ncc(-c3ccc(Cl)cc3)s2)cc1)C(=O)O [Compound B-46]

# More lines, now with the values behind:
row,SMILES,IC50 [nM]
1,COc1ccc(-c2cnc(-c3ccc(S(=O)(=O)N[C@@H](C)C(=O)O)cc3)o2)cc1 [Compound A-9],9320
2,O=C(O)[C@@H](Cc1ccccc1)NS(=O)(=O)c1ccc(-c2ncc(-c3ccc(F)cc3)o2)cc1 [Compound A-19],247
3,O=C(O)[C@@H](Cc1ccccc1)NS(=O)(=O)c1ccc(-c2ncc(-c3ccccc3)s2)cc1 [Compound B-11],16.2

# Target: T2, MMP-8 (Homo sapiens, UniProt P22894)
# T2 construct: catalytic domain (^99Phe˜^262Gly) was amplified with PCR; His-tag; enterokinase digestion-site; made in house; host or cells: Escherichia coli
# Test: Assay for inhibitory activities on MMPs (fluorogenic peptide substrate), MMP-8
# Assay type: biochemical
# Conditions: catalytic domain 99Phe-262Gly; substrate MOCAc-Pro-Leu-Gly-Leu-A2Pr(DNP)-Ala-Arg-NH2
# Description: In regard to MMP-8, catalytic domain (^99Phe˜^262Gly) was amplified with PCR using commercial available Human Bone Marrow cDNA. This was cloned in Escherichia. coli expression vector pTrc99AHE inserted with His-tag sequence and enterokinase digestion-site, induced and expressed by IPTG (Isopropyl-β-D-thiogalactopyranoside) and expressed in a insoluble fraction (Thau F. Ho, M. Walid Qoronfleh, Robert C. Wahl, Trica A. Pulvino, Karen J. Vavra, Joe Falvo, Tracey M. Banks, Patricia G. Brake and Richard B. Ciccarelli: Gene expression, purification and characterization of recombinant human neutrophil collagenase. Gene 146, (1994) 297-301, Prepared by the a improved method of this material). Isolation of MMP-8 from an insoluble fraction was carried out by dissolving in modifier (6M urea) by a usual method and purification with metal chelate chromatography. And then removing modifier (6M urea) with dialysis and refolding of the enzyme spontaneously gave activated MMP-8.
# as §1, §2, §3, §4, §5, §6
# T2 sequence (P22894 99-262): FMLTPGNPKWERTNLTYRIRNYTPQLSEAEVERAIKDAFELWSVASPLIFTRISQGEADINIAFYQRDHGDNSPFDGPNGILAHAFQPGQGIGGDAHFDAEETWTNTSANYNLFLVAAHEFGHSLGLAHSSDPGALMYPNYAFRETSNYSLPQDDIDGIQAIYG
row,IC50 [nM],SMILES
1,104,O=C(O)C[C@@H](NS(=O)(=O)c1ccc(-c2ncc(-c3ccc(Cl)cc3)s2)cc1)C(=O)O [Compound B-38]
2,57,CSCC[C@@H](NS(=O)(=O)c1ccc(-c2ncc(-c3ccc(Cl)cc3)s2)cc1)C(=O)O [Compound B-46]

# Further lines, the molecule ahead of its results:
row,SMILES,IC50 [nM]
1,COc1ccc(-c2cnc(-c3ccc(S(=O)(=O)N[C@@H](C)C(=O)O)cc3)o2)cc1 [Compound A-9],266
2,O=C(O)[C@@H](Cc1ccccc1)NS(=O)(=O)c1ccc(-c2ncc(-c3ccc(F)cc3)o2)cc1 [Compound A-19],113
3,O=C(O)[C@@H](Cc1ccccc1)NS(=O)(=O)c1ccc(-c2ncc(-c3ccccc3)s2)cc1 [Compound B-11],26.1

# Target: T3, MMP-13 (Homo sapiens, UniProt P45452)
# T3 construct: catalytic domain (^104Tyr˜^267Gly) was amplified with RT-PCR; His-tag; enterokinase digestion-site; made in house; host or cells: Escherichia coli
# Test: Assay for inhibitory activities on MMPs (fluorogenic peptide substrate), MMP-13
# Assay type: biochemical
# Conditions: catalytic domain 104Tyr-267Gly; substrate MOCAc-Pro-Leu-Gly-Leu-A2Pr(DNP)-Ala-Arg-NH2
# Method: (§7) In regard to MMP-13, mRNA was prepared from carcinoma cell SW1353 derived from human cartilage stimulate by IL-1, TNF and catalytic domain (^104Tyr˜^267Gly) was amplified with RT-PCR. This was cloned in Escherichia. coli expression vector pTrc99AHE inserted with His-tag sequence and enterokinase digestion-site, induced and expressed by IPTG (Isopropyl-β-D-thiogalactopyranoside) and expressed in a insoluble fraction. Isolation of MMP-13 from an insoluble fraction was carried out by dissolving in modifier (6M urea) by a usual method and purification with metal chelate chromatography (Ni Chelateing Sepharose). And then removing modifier (6M urea) with dialyze and refolding of the enzyme spontaneously gave activated MMP-13.
# as §1, §2, §3, §4, §5, §6
row,IC50 [nM],SMILES
1,7.43,O=C(O)C[C@@H](NS(=O)(=O)c1ccc(-c2ncc(-c3ccc(Cl)cc3)s2)cc1)C(=O)O [Compound B-38]
2,11,CSCC[C@@H](NS(=O)(=O)c1ccc(-c2ncc(-c3ccc(Cl)cc3)s2)cc1)C(=O)O [Compound B-46]

# The next lines start with the molecule.
row,SMILES,IC50 [nM]
1,COc1ccc(-c2cnc(-c3ccc(S(=O)(=O)N[C@@H](C)C(=O)O)cc3)o2)cc1 [Compound A-9],433
2,O=C(O)[C@@H](Cc1ccccc1)NS(=O)(=O)c1ccc(-c2ncc(-c3ccc(F)cc3)o2)cc1 [Compound A-19],113
3,O=C(O)[C@@H](Cc1ccccc1)NS(=O)(=O)c1ccc(-c2ncc(-c3ccccc3)s2)cc1 [Compound B-11],6.34

# Target: T4, MMP-2 (Homo sapiens, UniProt P08253)
# T4 construct: purchased Calbiochem-Novabiochem International, Inc
# T4 sequence (P08253 110-660): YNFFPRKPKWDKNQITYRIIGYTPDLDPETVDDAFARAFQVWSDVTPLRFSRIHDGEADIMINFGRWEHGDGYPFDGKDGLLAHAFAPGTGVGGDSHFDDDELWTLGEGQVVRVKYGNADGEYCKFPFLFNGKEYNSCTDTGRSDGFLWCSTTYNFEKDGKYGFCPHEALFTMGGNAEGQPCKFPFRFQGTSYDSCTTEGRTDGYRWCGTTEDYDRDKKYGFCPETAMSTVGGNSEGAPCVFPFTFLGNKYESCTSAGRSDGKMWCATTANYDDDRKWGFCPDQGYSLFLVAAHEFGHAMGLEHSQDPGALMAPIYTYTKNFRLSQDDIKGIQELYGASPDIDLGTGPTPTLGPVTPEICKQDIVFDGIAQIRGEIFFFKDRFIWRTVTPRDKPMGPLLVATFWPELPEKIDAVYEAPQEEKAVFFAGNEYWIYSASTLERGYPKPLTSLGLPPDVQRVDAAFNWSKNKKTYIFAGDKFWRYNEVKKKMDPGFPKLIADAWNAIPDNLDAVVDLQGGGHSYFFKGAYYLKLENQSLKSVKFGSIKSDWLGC
# Test: Assay for inhibitory activities on MMPs (fluorogenic peptide substrate), MMP-2
# Assay type: biochemical
# Conditions: purchased MMP-2; substrate MOCAc-Pro-Leu-Gly-Leu-A2Pr(DNP)-Ala-Arg-NH2
# Method: MMP-2 was purchased from Calbiochem-Novabiochem International, Inc.
# as §1, §2, §3, §4, §5, §6
row,IC50 [nM],SMILES
1,2.14,O=C(O)C[C@@H](NS(=O)(=O)c1ccc(-c2ncc(-c3ccc(Cl)cc3)s2)cc1)C(=O)O [Compound B-38]
2,1.17,CSCC[C@@H](NS(=O)(=O)c1ccc(-c2ncc(-c3ccc(Cl)cc3)s2)cc1)C(=O)O [Compound B-46]

# Second part, the molecule before the results:
row,SMILES,IC50 [nM]
1,COc1ccc(-c2cnc(-c3ccc(S(=O)(=O)N[C@@H](C)C(=O)O)cc3)o2)cc1 [Compound A-9],287
2,O=C(O)[C@@H](Cc1ccccc1)NS(=O)(=O)c1ccc(-c2ncc(-c3ccc(F)cc3)o2)cc1 [Compound A-19],14.4
3,O=C(O)[C@@H](Cc1ccccc1)NS(=O)(=O)c1ccc(-c2ncc(-c3ccccc3)s2)cc1 [Compound B-11],1.08

# Target: T5, MMP-12 (Homo sapiens, UniProt P39900)
# T5 construct: catalytic domain(^100Phe˜^263Gly) was amplified with RT-PCR; His-tag; enterokinase digestion-site; made in house; host or cells: Escherichia coli
# Test: Assay for inhibitory activities on MMPs (fluorogenic peptide substrate), MMP-12
# Assay type: biochemical
# Conditions: catalytic domain 100Phe-263Gly; substrate MOCAc-Pro-Leu-Gly-Leu-A2Pr(DNP)-Ala-Arg-NH2
# Method: as §7, with “MMP-12,” for “MMP-13, mRNA was prepared from carcinoma cell SW1353 derived from human cartilage stimulate by IL-1, TNF and”, “domain(^100Phe˜^263Gly)” for “domain (^104Tyr˜^267Gly)”, “RT-PCR from Human Placenta Total RNA.” for “RT-PCR.”, “MMP-12” for “MMP-13”, “dialysis” for “dialyze”, “MMP-12.” for “MMP-13.”
# as §1, §2, §3, §4, §5, §6
# T5 sequence (P39900 100-263): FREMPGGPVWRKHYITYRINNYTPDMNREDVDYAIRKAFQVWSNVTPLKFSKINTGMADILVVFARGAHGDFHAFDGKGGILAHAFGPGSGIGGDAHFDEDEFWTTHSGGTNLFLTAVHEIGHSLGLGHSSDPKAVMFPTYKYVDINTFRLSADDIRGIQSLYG
row,IC50 [nM],SMILES
1,2.54,O=C(O)C[C@@H](NS(=O)(=O)c1ccc(-c2ncc(-c3ccc(Cl)cc3)s2)cc1)C(=O)O [Compound B-38]
2,1.08,CSCC[C@@H](NS(=O)(=O)c1ccc(-c2ncc(-c3ccc(Cl)cc3)s2)cc1)C(=O)O [Compound B-46]

# More lines, now with the values behind:
row,SMILES,IC50 [nM]
1,COc1ccc(-c2cnc(-c3ccc(S(=O)(=O)N[C@@H](C)C(=O)O)cc3)o2)cc1 [Compound A-9],27.3
2,O=C(O)[C@@H](Cc1ccccc1)NS(=O)(=O)c1ccc(-c2ncc(-c3ccc(F)cc3)o2)cc1 [Compound A-19],7.71
3,O=C(O)[C@@H](Cc1ccccc1)NS(=O)(=O)c1ccc(-c2ncc(-c3ccccc3)s2)cc1 [Compound B-11],2.4
